# From patent US20230340149A1, “METHODS OF TREATMENT OF INFLAMMATORY BOWEL DISEASES” (INSERM (INSTITUT NATIONAL DE LA SANTÉ ET DE LA RECHERCHE …, priority 2020, published 2023)
# Like-named read-outs stand apart in the source and are kept apart here.
# What was measured:
# [1] = highly basic guanidine; cited from earlier work
# [2] = in vivo, cited from earlier work
# cytochrome P450 enzymes = conditions: cited from earlier work
# [3] = cited from earlier work
# IBD patients = conditions: in vivo; cited from earlier work
# mouse colon = test: Daily intracolonic administration of thrombin in mice, inflammation parameters; type: in vivo
# Procedure: Thrombin (specific activity 2000 NIH units/mg protein, T6884, Sigma) was administered daily for 10-days intracolonically daily (5 U/mouse in 50 μl in saline, 0.9% NaCl) under light anaesthesia (3% isoflurane) in PAR-1^−/−, PAR4^−/−, littermates and in mice purchased from Janvier laboratories. Controls received heat-inactivated thrombin (same dose, 10 minutes at 100° C.) or saline alone. After intracolonic instillation, mice were kept upside-down for 2-min to allow colonic diffusion of the administered solution. After 10-days, mice were sacrificed by cervical dislocation and inflammation parameters were measured.
# TNBS colitis was induced in fasted rats as previously described^20,21. Animals were housed in ventilated cages, acclimatized for one week before experiment started and beddings were mixed twice. Briefly, TNBS was prepared at a final concentration of 120 mg/ml in 50% ethanol in saline and was kept in the dark before use. A catheter was inserted at 8 cm from the anus and 30 mg of the TNBS solution was instilled through the catheter into the lumen in a final volume of 250 μl/rat. For TNBS colitis induction in mice, fasted animals were lightly anesthetized with halothane. A polyethylene catheter was inserted intracolonically 4 cm from the anus and TNBS (2 mg/mouse in 100 μl) dissolved in a solution of saline plus 40% ethanol was pushed into the catheter. At time of the sacrifice, colonic tissues were harvested. Before opening the colon, luminal washes with a PBS solution were performed in order to measure thrombin activity in those washes. Colons were then cut opened. Macroscopic damage scores were evaluated as previously described^9, by a skilled observer unaware of the treatments. When observed, the following parameters were given score of 1: hemorrhage, edema, stricture, ulceration, fecal blood, mucus, and diarrhea. Erythema was scored a maximum of 2 depending on the length of the area being affected (0, absent; 1, less than 1 cm; and 2, more than 1 cm). Adhesion was scored based on its severity (0, absent; 1, moderate; and 2, severe). Colon thickness was measured using an electronic caliper (Mitutoyo, Mississauga, Canada, resolution 0.01 mm). MPO activity was measured as an index of granulocyte infiltration as previously described. Tissue samples were homogenized in a solution of 0.5% hexadecyltrimethylammonium bromide dissolved in phosphate buffer solution (pH 6.0) for 1 min. Homogenized tissues were centrifuged at 13 000 g for 2 min. Supernatants were added to a buffer supplemented with 1% hydrogen peroxide, and O-dianisidine dihydrochloride solution. Optical density readings were taken for 1 min at 30 s intervals at 450 nm^22. Results were normalized to total protein content and expressed as OD450 nm/min/μg/ml. For bacterial translocation assays, mesenteric lymph nodes were collected aseptically, weighed and homogenized before being plated at 37° C. in Columbia blood agar (BD Biosciences) for 24 h for aerobes, and for 48 h for anaerobes left in anaerobic jars^9. For permeability assays, mice received orally 4-kDa FITC Dextran (Sigma Aldrich) at the dose of 600 mg/kg body weight in PBS, and blood was collected 1-h after. Fluorescence for FITC-Dextran presence in serum was measured by spectrophotometry (excitation 485 nm, emission 528 nm)^23. Apoptosis was measured by TUNEL (terminal deoxynucleotidyl transferase dUTP nick end labeling) staining in mouse colonic tissues as previously described^24,25. Five random fields were captured per tissue section and percent of apoptotic cells was determined by an observer unaware of the treatments.
# [4] = system: human mucosa-associated microbiota biofilms; test: Adhesion of bacteria dispersed from thrombin-exposed human mucosal biofilms to Caco2 monolayers; type: cell-based; conditions: biofilms exposed to 1 U/ml
# Procedure: Methods for FIG. 7. Panel A: Mucosa-associated microbiota was extracted from 4 healthy human colon biopsies (collected in Toulouse Hospital under ethic approval CODECOH Colic-DC2015-2443), under anaerobic condition, and were seeded into the Calgary Biofilm Device (Innovotech, Canada) to develop a multispecies biofilm. After 48 hours of incubation (37° C., anaerobic environment), biofilms were exposed to various concentrations of human thrombin (0, 10, 100 and 1000 milliunit/ml). After 24 hours, dispersed bacteria from thrombin-treated biofilms were collected and apically exposed to human epithelial monolayers on 12-wells plates (Caco2, ATCC HB37). Bacterial adhesion to epithelial surface was assessed. Briefly, after 90 minutes of co-culture, cells were vigorously washed in PBS, and lyzed in Triton X100 0.1% for 10 minutes, after which live cell bacteria were counted on Columbia blood agar (CFU were counted after 24 hours incubation of plates at 37° C.). Data represent fold change CFU/ml count compared to untreated controls (=1). ANOVA with Fisher's LSD test, *P<0.05, ***P<0.001.
# [5] = system: adherent-invasive Escherichia coli (strain LF82) biofilms; test: Adhesion and invasion of bacteria from thrombin-exposed E. coli LF82 biofilms on Caco2 monolayers; type: cell-based
# Procedure: Panel B) Biofilms of adherent-invasive Escherichia coli (strain LF82) were formed into the Calgary Biofilm Device (Innovotech, Canada). After 48 hours of incubation (37° C., anaerobic environment), biofilms were exposed to various concentrations of human thrombin (0, 10, 100 to 1000 milliunit/ml). After 24 hours, dispersed bacteria from thrombin-treated biofilms were collected and apically exposed to human epithelial monolayers on 12-wells plates (Caco2, ATCC HB37). Bacterial adhesion to epithelial surface was assessed. Briefly, after 90 minutes of co-culture, cells were vigorously washed in PBS, and lyzed in Triton X100 0.1% for 10 minutes, after which live cell bacteria were counted on Columbia blood agar (CFU were counted after 24 hours incubation of plates at 37° C.). Data represent fold change CFU/ml count compared to untreated controls (=1). ANOVA with Fisher's LSD test, *P<0.05
# Panel C) Mucosa-associated microbiota was extracted from 3 healthy human colon biopsies (collected in Toulouse Hospital under ethic approval CODECOH Colic-DC2015-2443), under anaerobic condition, and were seeded into the Calgary Biofilm Device (Innovotech, Canada) to develop a multispecies biofilm. After 48 hours of incubation (37° C., anaerobic environment), biofilms were exposed to human thrombin (0 and 100 milliunit/ml). […] Bacterial invasion into epithelial cells was assessed. […]
# [6] = system: thrombin activity in human colonic tissues from CD patients; test: In situ zymography of thrombin activity on frozen colonic tissue sections; type: biochemical; conditions: CD patient colonic cryo-sections, 10 μM, data not shown
# [7] = system: TNBS-induced colitis in rats; test: TNBS-induced colitis in rats, daily intracolonic treatment; type: in vivo, rat; conditions: vs vehicle
# [8] = 50 μl of 100 U/ml per mouse daily for 10 days, vs vehicle (saline)
# [9] = HAT 1, 2, 3 studies, HIT, versus historical controls
compound,measurement,setting,value
CC1CNc2c(cccc2S(=O)(=O)N[C@@H](CCCNC(=N)N)C(=O)N2CC[C@@H](C)C[C@@H]2C(=O)O)C1 (some centres unmarked) [Argatroban],pKa,[1],13
same,plasma half-life,[2],approximately 45 minutes
CCCCCCOC(=O)NC(=N)c1ccc(NCc2nc3cc(C(=O)N(CCC(=O)OCC)c4ccccn4)ccc3n2C)cc1 [dabigatran etexilate],eliminated by the kidneys,[2],> 80%
same,plasma half-life,[2],approximately 12 hours
same,interaction with cytochrome P450 enzymes,cytochrome P450 enzymes,lacks interaction
same,hepatic toxicity,[3]; long-term treatment,has not been linked with hepatic toxicity
bivalirudin,excreted by the kidneys,[2],about 20%
same,rate of bleeding compared to heparin,[3]; acute coronary syndrome,lower rate of bleeding
heparin,benefit of treatment in IBD patients,IBD patients,some benefits
thrombin,translocation of aerobic bacteria into mesenteric lymph nodes,mouse colon; 50 μl of 100 U/ml per mouse daily for 10 days,caused the translocation
same,colon thickness,mouse colon; [8],significant increase
same,macroscopic damage,mouse colon; [8],caused macroscopic damage
same,"damage score, wall thickness and MPO activity",mouse colon; PAR4-deficient mice,significantly reduced
same,"macroscopic damage, colonic wall thickness and MPO activity",mouse colon; PAR-1-deficient mice,still exhibited significant
same,translocation of anaerobic bacteria,mouse colon; vs vehicle or boiled thrombin,not significantly different
same,potential to adhere to human intestinal epithelium monolayers,[4],increased
same,adhesion to human intestinal epithelium monolayers,[5]; biofilms exposed to 0.01 U/ml,adhered significantly more
same,ability to invade human intestinal epithelium monolayers,[5]; biofilms exposed to 0.1 U/ml,significantly increased
[H]/N=C(/N)c1ccc(NCc2nc3cc(C(=O)N(CCC(=O)O)c4ccccn4)ccc3n2C)cc1 [Dabigatran],thrombin activity detected in tissue (VPR-AMC substrate),[6],inhibited
same,MPO activity,[7]; 100 μl 5 μM,reducing significantly
same,colon thickness,[7]; 100 μl 5 μM,reducing significantly
same,macroscopic damage score,[7]; 100 μl 5 μM,reducing significantly
same,weight loss,[7]; 100 μl 5 μM,reducing significantly
same,blood in the feces (fecal bleeding score),[7],reduced significantly
same,oral availability / oral activity,[2],not orally active
hirudin,distributed in the extravascular compartment,[2],80%
same,found in the plasma,[2],20%
same,incidence of bleeding compared with heparin,"[3]; meta-analysis of 11 randomized trials, acute coronary syndrome",significantly higher incidence of bleeding
lepirudin,risk for major bleeding,[3]; [9],increased
same,risk of new thrombosis,[3]; [9],decreased
CCOC(=O)CN[C@@H](C(=O)N1CC[C@H]1C(=O)NCc1ccc(/C(N)=N\O)cc1)C1CCCCC1 [Ximelagatran],hepatic toxicity,[3]; treatment for over 35 days,linked with the risk of hepatic toxicity
desirudin,bleeding rates versus heparin,[3]; in vivo,similar
same,rate of proximal deep vein thrombosis,[3]; in vivo,reduced
same,prevention of VTE,[3]; versus enoxaparin or unfractionated heparin,superior
N=C(N)c1ccc(CNC(=O)[C@@H]2CCN2C(=O)[C@H](NCC(=O)O)C2CCCCC2)cc1 [melagatran],oral availability / oral activity,[2],poorly orally available
